Among the data in ChEMBL document CHEMBL1121395, “[5-(N4,N4-Dimethylasparagine),8-lysine]vasopressin: the first 5-position neurohypophyseal hormone analogue to retain to retain significant antidiuretic potency” (1980) are Activity values, retold here.

The species named for one assay is Gallus gallus. Description: Avian vasodepressor potency of compound was determined.
Assay [1] has as its system Rattus norvegicus. Briefly: In vivo antidiuretic potency of compound was determined in rat.
The species entered for assay [2] is Rattus norvegicus. Description: In vitro uterotonic potency of compound was determined in rat. The class given is functional.
The species entered for assay [3] is Rattus norvegicus. Briefly: Pressor potency of compound was determined in rat. The class given is functional.

As for `CN(C)C(=O)C[C@@H]1NC(=O)[C@H](CCC(N)=O)NC(=O)[C@H](Cc2ccccc2)NC(=O)[C@H](Cc2ccc(O)cc2)NC(=O)[C@@H](N)CSSC[C@@H](C(=O)N2CCC[C@H]2C(=O)N[C@@H](CCCCN)C(=O)NCC(N)=O)NC1=O`, the Activity in the assay filed under Gallus gallus was 0.39 mg; in the assay on Rattus norvegicus [1], 5.5 mg; in the assay listed under Rattus norvegicus [2], under 0.05 mg; in the assay filed under Rattus norvegicus [3], 2.55 mg.

As for `NCCCC[C@H](NC(=O)[C@@H]1CCCN1C(=O)[C@@H]1CSSC[C@H](N)C(=O)N[C@@H](Cc2ccc(O)cc2)C(=O)N[C@@H](Cc2ccccc2)C(=O)N[C@@H](CCC(N)=O)C(=O)N[C@@H](CC(N)=O)C(=O)N1)C(=O)NCC(N)=O`, the Activity in the assay with Rattus norvegicus [1] is reported as 203 mg.
